Experimental data as given in patent US20240059691A1 (KALVISTA PHARMACEUTICALS LIMITED, priority 2020, published 2024).

What was measured:
[1] = target: Human Factor XIIa (Homo sapiens (Human), UniProt P00748); experiment: Determination of FXIIa inhibition (fluorogenic substrate H-DPro-Phe-Arg-AFC, IC50 assay); type: biochemical; conditions: substrate H-DPro-Phe-Arg-AFC at Km, 25° C.; class scale A-G
Summary of the method: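 Human FXIIa incubated at 25° C with fluorogenic substrate H-DPro-Phe-Arg-AFC at its Km concentration and varying compound concentrations. Fluorescence release monitored over 5 min at 25° C; linear rate expressed as % of uninhibited activity to derive IC50.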

[2] = target: FXa (Homo sapiens (Human), UniProt P00742); experiment: Determination of related protease inhibition: FXa (fluorogenic substrate at Km); type: biochemical; conditions: 25° C.
FXa, sequence (P00742 235-488): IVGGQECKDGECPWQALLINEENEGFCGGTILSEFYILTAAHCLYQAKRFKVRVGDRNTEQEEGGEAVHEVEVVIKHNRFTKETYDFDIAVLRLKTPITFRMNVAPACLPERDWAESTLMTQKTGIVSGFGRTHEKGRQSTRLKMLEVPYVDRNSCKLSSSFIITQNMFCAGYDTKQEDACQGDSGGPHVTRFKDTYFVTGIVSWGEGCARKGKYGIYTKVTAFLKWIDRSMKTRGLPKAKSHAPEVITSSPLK
FXa, sequence (P00742 41-179 partner): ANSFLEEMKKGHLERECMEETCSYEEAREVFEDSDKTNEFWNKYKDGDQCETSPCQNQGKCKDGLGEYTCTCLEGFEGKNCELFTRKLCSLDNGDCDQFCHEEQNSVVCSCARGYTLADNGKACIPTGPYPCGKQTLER
Summary of the method: (§1)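 Human enzyme incubated with test compound over a concentration range and a fluorogenic substrate at its Km concentration. Liberated fluorescence monitored over 5 min at 25 °C; linear rate per minute expressed as % of uninhibited activity, and IC50 taken as the concentration giving 50% inhibition.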

[3] = target: Plasma Kallikrein (Homo sapiens (Human), UniProt P03952); experiment: Determination of related protease inhibition: Plasma Kallikrein (fluorogenic substrate at Km); type: biochemical; conditions: 25° C., read-out: IC50 (human PKal)
Plasma Kallikrein, sequence (P03952 391-638): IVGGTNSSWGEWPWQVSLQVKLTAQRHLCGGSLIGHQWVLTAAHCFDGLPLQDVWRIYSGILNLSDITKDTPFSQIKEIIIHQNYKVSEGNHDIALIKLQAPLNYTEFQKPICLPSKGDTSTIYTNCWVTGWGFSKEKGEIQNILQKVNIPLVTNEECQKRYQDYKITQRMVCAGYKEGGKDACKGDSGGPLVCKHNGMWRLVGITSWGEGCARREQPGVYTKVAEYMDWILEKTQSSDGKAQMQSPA
Plasma Kallikrein, sequence (P03952 20-390 partner): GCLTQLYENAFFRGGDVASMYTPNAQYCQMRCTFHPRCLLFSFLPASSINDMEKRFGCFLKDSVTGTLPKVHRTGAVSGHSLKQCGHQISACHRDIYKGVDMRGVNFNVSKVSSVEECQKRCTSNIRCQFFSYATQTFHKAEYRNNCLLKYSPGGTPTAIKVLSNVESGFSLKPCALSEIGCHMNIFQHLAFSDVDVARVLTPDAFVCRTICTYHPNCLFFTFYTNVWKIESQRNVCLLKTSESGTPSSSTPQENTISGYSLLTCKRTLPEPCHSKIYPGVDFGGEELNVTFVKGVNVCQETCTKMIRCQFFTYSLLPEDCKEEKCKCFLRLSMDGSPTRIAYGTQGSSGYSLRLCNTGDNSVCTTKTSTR
Summary of the method: as §1

[4] = target: KLK1 (Homo sapiens (Human), UniProt P06870); experiment: Determination of related protease inhibition: KLK1 (fluorogenic substrate at Km); type: biochemical; conditions: 25° C.
KLK1, sequence (P06870 25-262): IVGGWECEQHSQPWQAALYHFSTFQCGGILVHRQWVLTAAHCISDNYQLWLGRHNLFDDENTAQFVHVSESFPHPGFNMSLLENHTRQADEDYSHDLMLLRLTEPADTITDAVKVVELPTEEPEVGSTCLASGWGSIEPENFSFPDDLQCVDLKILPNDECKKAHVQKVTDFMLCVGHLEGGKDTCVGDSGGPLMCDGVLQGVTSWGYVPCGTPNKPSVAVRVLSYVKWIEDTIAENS
Summary of the method: as §1

[5] = Pharmacokinetics following a single intravenous dose and a single oral dose in male Sprague-Dawley rats (oral bioavailability, half-life); type: in vivo; conditions: rat, plasma, 10% DMSO/10% Cremophor EL/80% SWFI; for bioavailability: read-out: F % (oral bioavailability)
Protocol: Pharmacokinetic studies of the compounds in Table 16 were performed to assess the pharmacokinetics following a single intravenous dose and a single oral dose in male Sprague-Dawley rats. Two rats were given a single intravenous dose of 1 mL/kg of a nominal 1 mg/mL (1 mg/kg) composition of test compound in 10% DMSO/10% Cremophor EL/80% SWFI vehicle. Example 2191 was dosed at 1 mL/kg of a nominal 2 mg/mL (2 mg/kg) using the same vehicle.
Two rats were given a single oral dose of 5 mL/kg of a nominal 1 mg/mL (5 mg/kg) composition of test compound in 10% DMSO/10% Cremophor EL/80% SWFI vehicle. Example 2191 was dosed at 5 mL/kg of a nominal 2 mg/mL (10 mg/kg) using the same vehicle.
Following intravenous dosing, blood samples were collected over a period of 12 h. Sample times were 2, 5, 15 and 30 min then 1, 2, 4, 6, and 12 h. Following oral dosing, blood samples were collected over a period of 24 h. Sample times were 5, 15 and 30 min then 1, 2, 4, 6, 8, 12 and 24 h.
Following collection, blood samples were centrifuged and the plasma fraction analysed for concentration of test compound by LCMS. Oral bioavailability and half-life calculations from these studies were obtained using Phoenix WinNonlin (v8.0) and are shown below: […]

[6] = target: Thrombin (Homo sapiens (Human), UniProt P00734); experiment: Determination of related protease inhibition: Thrombin (fluorogenic substrate at Km); type: biochemical; conditions: 25° C.
Summary of the method: as §1

[7] = target: FXIa (Homo sapiens (Human), UniProt P03951); experiment: Determination of related protease inhibition: FXIa (fixed substrate concentration of 100 μM); type: biochemical; conditions: 25° C.
FXIa, sequence (P03951 388-625): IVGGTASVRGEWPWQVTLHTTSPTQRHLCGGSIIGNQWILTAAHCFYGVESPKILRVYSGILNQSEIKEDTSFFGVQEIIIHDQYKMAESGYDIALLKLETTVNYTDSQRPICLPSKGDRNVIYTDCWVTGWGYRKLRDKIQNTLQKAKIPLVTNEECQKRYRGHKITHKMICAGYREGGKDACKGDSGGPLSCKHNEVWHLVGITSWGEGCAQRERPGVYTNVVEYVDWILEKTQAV
FXIa, sequence (P03951 19-387 partner): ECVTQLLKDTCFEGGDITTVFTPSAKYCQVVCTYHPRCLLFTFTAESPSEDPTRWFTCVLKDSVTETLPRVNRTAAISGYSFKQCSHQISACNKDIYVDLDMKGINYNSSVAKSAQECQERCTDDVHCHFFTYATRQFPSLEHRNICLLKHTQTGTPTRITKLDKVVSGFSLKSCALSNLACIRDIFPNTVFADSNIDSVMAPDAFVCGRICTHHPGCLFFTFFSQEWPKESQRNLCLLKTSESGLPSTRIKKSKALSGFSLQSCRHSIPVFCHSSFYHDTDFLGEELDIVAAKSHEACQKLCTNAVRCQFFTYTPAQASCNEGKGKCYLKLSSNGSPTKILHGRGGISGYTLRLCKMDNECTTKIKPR
Protocol: Determination of Related Protease Inhibition
In vitro inhibition of related proteases was determined using an ([…] assay based on standard literature methods (see e.g. Shori et al., Biochem. Pharmacol., 1992, 43, 1209; Bouckaert et al., European Journal of Medicinal Chemistry 110 (2016) 181). Human serine protease enzymes Plasma Kallikrein, KLK1, FXa, Plasmin, Thrombin and Trypsin were assayed for enzymatic activity using an appropriate fluorogenic substrate at Km concentration, FXIa at fixed substrate concentration of 100 μM, and various concentrations of the test compound. Protease activity was measured by monitoring the accumulation of liberated fluorescence from the substrate over […]. The linear rate of fluorescence increase per minute was expressed as percentage (%) activity. IC50 values were calculated as the concentration of inhibitor giving 50% inhibition of the uninhibited enzyme activity (100%).

Human Factor XIIa, sequence (P00748 373-615): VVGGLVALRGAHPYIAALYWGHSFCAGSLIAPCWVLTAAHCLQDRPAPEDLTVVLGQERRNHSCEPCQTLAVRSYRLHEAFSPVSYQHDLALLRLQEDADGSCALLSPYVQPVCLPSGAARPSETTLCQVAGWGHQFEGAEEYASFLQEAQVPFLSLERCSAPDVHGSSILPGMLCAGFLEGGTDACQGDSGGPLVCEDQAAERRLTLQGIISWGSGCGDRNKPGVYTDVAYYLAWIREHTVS

IC50 [1] [µM]	IC50 [2] [µM]	IC50 [3] [µM]	IC50 [4] [µM]	half-life [5] [h]	bioavailability [5] [%]	IC50 [6] [µM]	IC50 [7] [µM]	Structure (SMILES)
0.1 to 0.3	10 to 40	10 to 40	3 to 10	6.18	9.7	10 to 40		Nc1nccc2c(NCc3ccc(OCC4CCn5ccnc5C4)nc3)cccc12 (single isomer, unassigned) [Example 1029, (R*)-N5-((6-((5,6,7,8-tetrahydroimidazo[1,2-a]pyridin-7-yl)methoxy)pyridin-3-yl)methyl)isoquinoline-1,5-diamine]
0.1 to 0.3	> 40	10 to 40	10 to 40			> 40	> 40	CC(C)N1C[C@H]2C[C@@H]1CN2CCc1ccc(CNc2cccc3c(N)nccc23)c(F)c1 (stereo in doubt) [Example 2213, N5-[[2-fluoro-4-[2-[(1R,4R)-5-isopropyl-2,5-diazabicyclo[2.2.1]heptan-2-yl]ethyl]phenyl]methyl]isoquinoline-1,5-diamine]
0.3 to 1	> 40	10 to 40	3 to 10			10 to 40	> 40	CC(C)N1CC2(CN(Cc3ccc(CNc4ccc5c(N)nccc5c4)c(F)c3)C2)C1 [Example 1037, 6-N-{[2-fluoro-4-({6-isopropyl-2,6-diazaspiro[3.3]heptan-2-yl}methyl)phenyl]methyl}isoquinoline-1,6-diamine]
3 to 10	> 20	> 20				> 20	> 20	CN1CCC(OCc2ccc(CNc3ccc4cnccc4c3)cc2)CC1 [Example 2193, N-(4-(((1-methylpiperidin-4-yl)oxy)methyl)benzyl)isoquinolin-6-amine]
1 to 3	10 to 40	10 to 40				10 to 40	> 40	CN1CCC(OCc2ccc(CNc3ccc4c(N)nccc4c3)cc2)C(F)(F)C1 (centres unmarked) [Example 2194, N6-(4-(((3,3-difluoro-1-methylpiperidin-4-yl)oxy)methyl)benzyl)isoquinoline-1,6-diamine]
0.01 to 0.1	> 20	10 to 40				> 20	> 20	CCN1CCC(OCc2ccc(CNc3cccc4c(N)nccc34)c(F)c2)CC1 [Example 2201, 5-N-[(4-{[(1-ethylpiperidin-4-yl)oxy]methyl}-2-fluorophenyl)methyl]isoquinoline-1,5-diamine]
0.3 to 1	3 to 10	3 to 10				3 to 10	> 20	CN1CCC(CCn2cc(CNc3ccc4c(N)nccc4c3)cn2)CC1 [Example 3254, N6-((1-(2-(1-methylpiperidin-4-yl)ethyl)-1H-pyrazol-4-yl)methyl)isoquinoline-1,6-diamine]
0.1 to 0.3		> 4		10.1	8.3			CC(C)N1CCC(COc2cc(CNc3cccc4c(N)nccc34)ccn2)CC1 [Example 4299, N5-[[2-[(1-isopropyl-4-piperidyl)methoxy]-4-pyridyl]methyl]isoquinoline-1,5-diamine]
0.3 to 1		> 4		2.19	8.5			Cn1ccc(COc2cc(CNc3cccc4c(N)nccc34)ccn2)cc1=O [Example 4301, 4-[[4-[[(1-Amino-5-isoquinolyl)amino]methyl]-2-pyridyl]oxymethyl]-1-methyl-pyridin-2-one]
1 to 3	1 to 3	1 to 3				1 to 3	> 40	Nc1nccc2cc(NCc3ccnc(-c4cccc(CN5CCCC5)c4)c3)ccc12 [Example 5434, N6-((2-(3-(pyrrolidin-1-ylmethyl)phenyl)pyridin-4-yl)methyl)isoquinoline-1,6-diamine]

Continued, molecule first:

Structure (SMILES)	IC50 [1] [µM]	IC50 [2] [µM]	IC50 [3] [µM]	IC50 [4] [µM]	half-life [5] [h]	bioavailability [5] [%]	IC50 [6] [µM]	IC50 [7] [µM]
Cc1cc(N2CCn3c(nnc3C(F)(F)F)C2C)ncc1CNc1cccc2c(N)nccc12 (single isomer, unassigned) [Example 1305, (S*)-N5-((4-methyl-6-(8-methyl-3-(trifluoromethyl)-5,6-dihydro-[1,2,4]triazolo[4,3-a]pyrazin-7(8H)-yl)pyridin-3-yl)methyl)isoquinoline-1,5-diamine]	0.01 to 0.1			> 4	4.04	79.4		
CN1CCC(CNc2ccc(CNc3ccnc4[nH]c(Cl)cc34)cn2)CC1 [Example 1243, 2-chloro-N-((6-(((1-methylpiperidin-4-yl)methyl)amino)pyridin-3-yl)methyl)-1H-pyrrolo [2,3-b]pyridin-4-amine]	0.01 to 0.1	10 to 40	> 40	10 to 40	8.76	4.9	> 40	
Cc1cc(N2CCn3c(nnc3C(F)(F)F)C2)ncc1CNc1cccc2c(N)nccc12 [Example 1282, N5-((4-Methyl-6-(3-(trifluoromethyl)-5,6-dihydro-[1,2,4]triazolo[4,3-a]pyrazin-7(8H)-yl)pyridin-3-yl)methyl)isoquinoline-1,5-diamine]	0.01 to 0.1	> 4	> 40	3 to 10	2.34	53.2		
CN1CCC(OCc2ccc(CNc3ccc4c(N)nccc4c3)cc2)CC1 [Example 2185, N6-(4-(((1-methylpiperidin-4-yl)oxy)methyl)benzyl)isoquinoline-1,6-diamine]	0.1 to 0.3	3 to 10	3 to 10				3 to 10	> 40
CN1CCC(OCc2ccc(CNc3ccc4c(N)nccc4c3)c(Cl)c2)CC1 [Example 2192, N6-(2-chloro-4-(((1-methylpiperidin-4-yl)oxy)methyl)benzyl)isoquinoline-1,6-diamine]	0.1 to 0.3	1 to 3	3 to 10				3 to 10	> 40
Nc1nccc2cc(NCc3ccc(COC4CCN(C5CC5)CC4)cc3)ccc12 [Example 2195, 6-N-[(4-{[(1-cyclopropylpiperidin-4-yl)oxy]methyl}phenyl)methyl]isoquinoline-1,6-diamine]	0.3 to 1	10 to 40	3 to 10				10 to 40	> 40
Nc1nccc2cc(NCc3ccc(COC4CCN(CC(F)F)CC4)cc3)ccc12 [Example 2196, 6-N-{[4-({[1-(2,2-difluoroethyl)piperidin-4-yl]oxy}methyl)phenyl]methyl}isoquinoline-1,6-diamine]	1 to 3	10 to 40	10 to 40				10 to 40	> 40
CCN1CCC(OCc2ccc(CNc3ccc4c(N)nccc4c3)c(F)c2)CC1 [Example 2202, 6-N-[(4-{[(1-ethylpiperidin-4-yl)oxy]methyl}-2-fluorophenyl)methyl]isoquinoline-1,6-diamine]	0.1 to 0.3	3 to 10	1 to 3				3 to 10	> 20
CN1CCC(COc2cc(CNc3ccc4c(N)nccc4c3)ccn2)CC1 [Example 4261, N6-((2-((1-methylpiperidin-4-yl)methoxy)pyridin-4-yl)methyl)isoquinoline-1,6-diamine]	0.01 to 0.1	0.3 to 1	3 to 10				3 to 10	> 20
Nc1nccc2c(NCc3ccnc(OCC4CCn5ccnc5C4)c3)cccc12 (centres unmarked) [Example 4298, N5-((2-((5,6,7,8-tetrahydroimidazo[1,2-a]pyridin-7-yl)methoxy)pyridin-4-yl)methyl)isoquinoline-1,5-diamine]	0.01 to 0.1		> 40	3 to 10			> 40	10 to 40
